Literature values, collected in patent publication US20090087487A1, “Paliperidone sustained release formulation” (priority 2007, published 2009).

## Cc1nc2n(c(=O)c1CCN1CCC(c3noc4cc(F)ccc34)CC1)CCCC2O (stereo not shown) [Paliperidone, 4H-Pyrido[1,2-a]pyrimidin-4-one, 3-[2-[4-(6-fluoro-1,2-benzisoxazol-3-yl)-1-piperidinyl]ethyl]-6,7,8,9-tetrahydro-9-hydroxy-2-methyl]
0.1 N hydrochloric acid
  solubility in 0.1 N hydrochloric acid: soluble
methanol
  solubility in methanol: soluble
Methylene chloride
  solubility in methylene chloride: freely soluble
water
  solubility in water: practically insoluble
